Where two headings read alike, the source gives them in different places.
System: C. parvum strain UGA1
Assay: C. parvum growth inhibition assay (Nluc luminescence in HCT-8 cells)
Assay type: cell-based, Cryptosporidium parvum
Conditions: for inhibition at 1 µM / inhibition at 10 µM / EC50: Cryptosporidium parvum; for inhibition at 1 µM / inhibition at 10 µM: HCT-8; for inhibition at 1 µM: read-out: % inh @ 1 uM C. parvum; for inhibition at 10 µM: read-out: % inh @ 10 uM C. parvum; for EC50: HCT-8, 48 h, C. parvum growth inhibition in HCT-8 cells, 48 hours, 6 concentrations 10-0.04 μM
[1] = single point inhibition at 1 uM
[2] = single point inhibition at 10 uM
[3] = single point inhibition @ 10 uM

Row | Structure (SMILES) | inhibition at 1 µM [1] | inhibition at 10 µM [2] | EC50 | other results
1 | CO[C@H]1CC[C@H](Nc2cc3[nH]c(-c4cccnc4)cc3cn2)CC1 [Example 274, N-((1r,4r)-4-methoxycyclohexyl)-2-(pyridin-3-yl)-1H-pyrrolo[3,2-c]pyridin-6-amine] | 0 to 33% | 0 to 33% |  | 
2 | Cn1c(-c2ccnc(NCC(F)(F)F)n2)cc2cnc(NC3CCCOC3)cc21 (stereo in doubt) [Example 386, (R)-1-methyl-N-(tetrahydro-2H-pyran-3-yl)-2-(2-(2,2,2-trifluoroethyl)amino)pyrimidin-4-yl)-1H-pyrrolo[3,2-c]pyridin-6-amine] |  |  | > 1 µM | 
3 | Cc1cc(-c2[nH]c3cc(NC4CCOC4)ncc3c2C)ccn1 (stereo in doubt) [Example 367, (S)-3-methyl-2-(2-methylpyridin-4-yl)-N-(tetrahydrofuran-3-yl)-1H-pyrrolo[3,2-c]pyridin-6-amine] |  |  | > 1 µM | 
4 | Cc1cccc(-c2cc3cnc(NC4CCOCC4)cc3[nH]2)c1 [Example 352, N-(tetrahydro-2H-pyran-4-yl)-2-m-tolyl-1H-pyrrolo[3,2-c]pyridin-6-amine] |  |  | > 1 µM | 
5 | CNc1cc2c(cn1)cc(-c1cc(C)ncn1)n2C [Example 126, N,1-dimethyl-2-(6-methylpyrimidin-4-yl)-1H-pyrrolo[3,2-c]pyridin-6-amine] |  |  | > 1 µM | 
6 | CC(C)n1cc(C(=O)Nc2cc3[nH]c(-c4ccnc(OCC(F)F)n4)cc3cn2)cn1 [Example 173, N-(2-(2-(2,2-difluoroethoxy)pyrimidin-4-yl)-1H-pyrrolo[3,2-c]pyridin-6-yl)-1-isopropyl-1H-pyrazole-4-carboxamide] |  |  |  | inhibition at 1 µM (single point inhibition @ 1 uM): 0 to 33%; inhibition at 10 µM [3]: 67 to 100%
7 | c1ccc(Nc2cc3[nH]c(-c4ccccc4)cc3cn2)cc1 [Example 271, N,2-diphenyl-1H-pyrrolo[3,2-c]pyridin-6-amine] | 0 to 33% | 0 to 33% |  | 
8 | Cn1c(-c2ccnc(C(F)(F)F)n2)cc2cnc(NC3CCOCC3)cc21 [Example 396, 1-methyl-N-(tetrahydro-2H-pyran-4-yl)-2-(2-(trifluoromethyl)pyrimidin-4-yl)-1H-pyrrolo[3,2-c]pyridin-6-amine] |  |  | > 1 µM | 
9 | O=C(Nc1cc2[nH]c(-c3ccncc3)cc2cn1)c1ccccc1 [Example 277, N-(2-(pyridin-4-yl)-1H-pyrrolo[3,2-c]pyridin-6-yl)benzamide] | 0 to 33% | 0 to 33% |  | 
10 | Cn1c(-c2ccnc(NCC(F)(F)F)c2)cc2cnc(NC3CCOCC3)cc21 [Example 382, 1-methyl-N-(tetrahydro-2H-pyran-4-yl)-2-(2-(2,2,2-trifluoroethylamino)pyridin-4-yl)-1H-pyrrolo[3,2-c]pyridin-6-amine] |  |  | > 1 µM | 
11 | Cn1cc(C(=O)Nc2cc3[nH]c(C4CCOCC4)cc3cn2)cn1 [Example 259, 1-methyl-N-(2-(tetrahydro-2H-pyran-4-yl)-1H-pyrrolo[3,2-c]pyridin-6-yl)-1H-pyrazole-4-carboxamide] | 0 to 33% | 0 to 33% |  | 
12 | Cc1cc(-c2cc3cnc(Nc4cccc(-c5nc[nH]n5)c4)cc3[nH]2)cc(N)n1 [Example 150, N-(3-(1H-1,2,4-triazol-3-yl)phenyl)-2-(2-amino-6-methylpyridin-4-yl)-1H-pyrrolo[3,2-c]pyridin-6-amine] |  |  |  | inhibition at 1 µM (single point inhibition @ 1 uM): 0 to 33%; inhibition at 10 µM [3]: 67 to 100%
13 | Cn1c(-c2cc(C(F)(F)F)ncn2)cc2cnc(NC3CCOCC3)cc21 [Example 392, 1-methyl-N-(tetrahydro-2H-pyran-4-yl)-2-(6-(trifluoromethyl)pyrimidin-4-yl)-1H-pyrrolo[3,2-c]pyridin-6-amine] |  |  | > 1 µM | 
14 | CC(=O)Nc1cc2[nH]c(-c3cccnc3)cc2cn1 [Example 198, N-(2-(pyridin-3-yl)-1H-pyrrolo[3,2-c]pyridin-6-yl)acetamide] | 0 to 33% | 67 to 100% |  | 
15 | Cn1cc(C(=O)Nc2cc3[nH]c(-c4ccc(C(F)(F)F)nc4)cc3cn2)cn1 [Example 306, 1-methyl-N-(2-(6-(trifluoromethyl)pyridin-3-yl)-1H-pyrrolo[3,2-c]pyridin-6-yl)-1H-pyrazole-4-carboxamide] | 0 to 33% | 0 to 33% |  | 
16 | c1cc(-c2cc3cnc(NC4CCOCC4)cc3[nH]2)nc(N2CCCC2)n1 [Example 372, 2-(2-(pyrrolidin-1-yl)pyrimidin-4-yl)-N-(tetrahydro-2H-pyran-4-yl)-1H-pyrrolo[3,2-c]pyridin-6-amine] |  |  | < 0.5 µM | 
17 | CN(CC(F)(F)F)c1cc(-c2cc3cnc(NC4CCOCC4)cc3[nH]2)ncn1 [Example 44, 2-(6-(Methyl(2,2,2-trifluoroethyl)amino)pyrimidin-4-yl)-N-(tetrahydro-2H-pyran-4-yl)-1H-pyrrolo[3,2-c]pyridin-6-amine] |  |  |  | inhibition at 1 µM (single point inhibition @ 1 uM): 0 to 33%; inhibition at 10 µM [3]: 67 to 100%

Row | Structure (SMILES) | inhibition at 1 µM [1] | inhibition at 10 µM [2] | EC50 | other results
18 | Cc1nc(-c2cc3cnc(NC(=O)C4CC4)cc3[nH]2)co1 [Example 335, N-(2-(2-methyloxazol-4-yl)-1H-pyrrolo[3,2-c]pyridin-6-yl)cyclopropanecarboxamide] | 0 to 33% | 0 to 33% |  | 
19 | Cn1cc(C(=O)Nc2cc3c(cn2)cc(-c2ccnc(NCC(F)F)n2)n3C)cn1 [Example 144, N-(2-(2-(2,2-difluroethylamino)pyrimidin-4-yl)-1-methyl-1H-pyrrolo[3,2-c]pyridin-6-yl)-1-methyl-1H-pyrazole-4-carboxmaide] |  |  |  | inhibition at 1 µM (single point inhibition @ 1 uM): 0 to 33%; inhibition at 10 µM [3]: 67 to 100%
20 | Cn1cc(C(=O)Nc2cc3c(cn2)cc(C#N)n3C)cn1 [Example 279, N-(2-cyano-1-methyl-1H-pyrrolo[3,2-c]pyridin-6-yl)-1-methyl-1H-pyrazole-4-carboxamide] | 0 to 33% | 0 to 33% |  | 
21 | Cc1cc(-c2cc3cnc(NC(=O)[C@H]4CCCO4)cc3[nH]2)ccn1 [Example 212, (R)-N-(2-(2-methylpyridin-4-yl)-1H-pyrrolo[3,2-c]pyridin-6-yl)tetrahyrdofuran-2-carboxamide] |  |  |  | % inh @ 1 uM C. parvum [1]: D (single point inhibition values of 0-33% (activity level D)); % inh @ 10 uM C. parvum [2]: F (between 67% and 100% (activity level F))
22 | COCCn1cc(Nc2cc3[nH]c(-c4ccncc4)cc3cn2)cn1 [Example 192, N-(1-(2-methoxyethyl)-1H-pyrazol-4-yl)-2-(pyridin-4-yl)-1H-pyrrolo[3,2-c]pyridin-6-amine] |  |  |  | inhibition at 1 µM (single point inhibition @ 1 uM): 33 to 66%; inhibition at 10 µM [3]: 67 to 100%
23 | Cc1cc(-c2[nH]c3cc(NC4CCOCC4)ncc3c2C(F)(F)F)ccn1 [Example 375, 2-(2-methylpyridin-4-yl)-N-(tetrahydro-2H-pyran-4-yl)-3-(trifluoromethyl)-1H-pyrrolo[3,2-c]pyridin-6-amine] |  |  | > 1 µM | 
24 | COc1nccc(-c2cc3cnc(NC(=O)c4ccc(OC5CCOCC5)cc4)cc3n2C)n1 [Example 188, N-(2-(2-methoxypyrimidin-4-yl)-1-methyl-1H-pyrrolo[3,2-c]pyridin-6-yl)-4-(tetrahydro-2H-pyran-4-yloxy)benzamide] |  |  |  | inhibition at 1 µM (single point inhibition @ 1 uM): 0 to 33%; inhibition at 10 µM [3]: 67 to 100%
25 | O=C(Nc1cc2[nH]c(-c3nc[nH]n3)cc2cn1)C1CC1 [Example 201, N-(2-(1H-1,2,4-triazol-3-yl)-1H-pyrrolo[3,2-c]pyridin-6-yl)cyclopropanecarboxamide] | 0 to 33% | 67 to 100% |  | 
26 | Cn1cc(C(=O)Nc2cc3[nH]c(-c4cnc[nH]4)cc3cn2)cn1 [Example 82, N-(2-(1H-imidazol-5-yl)-1H-pyrrolo[3,2-c]pyridin-6-yl)-1-methyl-1H-pyrazole-4-carboxamide] |  |  | > 1 µM | inhibition at 1 µM (single point inhibition @ 1 uM): 0 to 33%; inhibition at 10 µM [3]: 33 to 66%
27 | Cn1cc(-c2cc3cnc(NC(=O)C4CC4)cc3[nH]2)cn1 [Example 210, N-(2-(1-methyl-1H-pyrazol-4-yl)-1H-pyrrolo[3,2-c]pyridin-6-yl)cyclopropanecarboxamide] | 0 to 33% | 67 to 100% |  | 
28 | Cc1nccc(-c2cc3cnc(NC(=O)C4CCC4)cc3[nH]2)n1 [Example 99, N-(2-(2-methylpyrimidin-4-yl)-1H-pyrrolo[3,2-c]pyridin-6-yl)cyclobutanecarboxamide] |  |  | > 1 µM | 
29 | Cc1cc(-c2cc3cnc(NC4CCN(C)CC4)cc3n2C)ncn1 [Example 117, 1-methyl-N-(1-methylpiperidin-4-yl)-2-(6-methylpyrimidin-4-yl)-1H-pyrrolo[3,2-c]pyridin-6-amine] |  |  | > 1 µM | 
30 | C[C@H]1C[C@@H]1C(=O)Nc1cc2[nH]c(-c3ccnc(C(F)(F)F)n3)cc2cn1 (stereo in doubt) [Example 262, (1S,2S)-2-methyl-N-(2-(2-(trifluoromethyl)pyrimidin-4-yl)-1H-pyrrolo[3,2-c]pyridin-6-yl)cyclopropanecarboxamide] | 0 to 33% | 0 to 33% |  | 
31 | Cn1ccc(C(=O)Nc2cc3[nH]c(-c4ccncc4)cc3cn2)n1 [Example 238, 1-methyl-N-(2-(pyridin-4-yl)-1H-pyrrolo[3,2-c]pyridin-6-yl)-1H-pyrazole-3-carboxamide] | 0 to 33% | 0 to 33% |  | 
32 | Cc1cc(Nc2cc3[nH]c(-c4ccncc4)cc3cn2)nn1C(C)C [Example 168, N-(1-isopropyl-5-methyl-1H-pyrazol-3-yl)-2-(pyridin-4-yl)-1H-pyrrolo[3,2-c]pyridin-6-amine] |  |  |  | inhibition at 1 µM (single point inhibition @ 1 uM): 33 to 66%; inhibition at 10 µM [3]: 67 to 100%
33 | Cc1cc(-c2cc3cnc(NC(=O)C4(C)CC4)cc3[nH]2)ccn1 [Example 95, 1-methyl-N-(2-(2-methylpyridin-4-yl)-1H-pyrrolo[3,2-c]pyridin-6-yl)cyclopropanecarboxamide] |  |  | > 1 µM | 
34 | CC(C)n1cc(C(=O)Nc2cc3c(cn2)cc(-c2ccnc(NCC4CC4)n2)n3C)cn1 [Example 131, N-(2-(2-(cyclopropylmethylamino)pyrimidin-4-yl)-1-methyl-1H-pyrrolo[3,2-c]pyridin-6-yl)-1-isopropyl-1H-pyrazole-4-carboxmaide] |  |  |  | inhibition at 1 µM (single point inhibition @ 1 uM): 0 to 33%; inhibition at 10 µM [3]: 67 to 100%

— patent US20240124444A1 (Celgene Corporation, priority 2020, published 2024)
